Test results: patent US20240034761A1, “REGENERATION OF MAMMALIAN TISSUES USING SYNTHETIC IMMODULINS” (priority 2022, published 2024)
Marks after values point to notes of the source that are not given here. Peptide text beside a SMILES is read from it.

Legend:
[1] = Plate binding of FITC-labelled heparin to immobilised biotinylated peptides; settings: 400 ng peptide/well, 1 ug FITC-heparin, PBS; normalized to immX3 peptide binding = 100
Procedure: (§1) Effects of pH, PIP2 and size classes: Streptavidin-coated 96-well plates (G-Biosciences, St. Louis, MO) were pre-loaded with biotinylated peptides [see Example 1] at 400 ng/well, at room temperature for 60 minutes. The plate was washed with PBS buffer and then 1 ug FITC-labelled heparin or hyaluronic acid (FITC-HMW-HA) in 100 uL PBS buffer was added per well (all tests done in quadruplicate). Incubation proceeded for 90 minutes at room temperature, followed by two PBS washes. The plate was read in a standard laboratory fluorometer (488/525 nm exitation/[…]) and the counts normalized for immX3 peptide binding=100. Values statistically above background are shown in bold font. **p<0.05 versus immX3AVD.

[2] = Second binding experiment: FITC-HMW-HA binding with holotransferrin, pH and cold competitors; parameters: key to FITC-HMW-HA binding, +cold LMW-HA / FITC-HMW-HA binding, +cold HMW-HA: fluorescence counts normalized to peptide binding control = 100; settings: holotransferrin 10 ug/well; for FITC-HMW-HA binding, +cold HMW-HA: HMW-HA 10 ug/well; for FITC-HMW-HA binding, +cold LMW-HA: LMW-HA hexamer 10 ug/well; for FITC-HMW-HA binding, +cold PIP2: excess PIP2 500 ng/well
Procedure: as §1
A second binding experiment was done as above, but using either 6 mM sodium phosphate buffer pH 7.4 or sodium citrate buffer pH 5.2 in the presence of FITC-HMW-HA (1.5 ug/well), holotransferrin (10 ug/well) and excess PIP2 (500 ng/well), LMW-HA (hexamer; 10 ug/well) or HMW-HA (10 ug/well). **p<0.05 versus peptide binding control (=100);

recombinant CD44 protein = biological target: T1, recombinant CD44 protein (Homo sapiens, UniProt P16070); assay: Third binding experiment: CD44 binding to peptide/holotransferrin/hyaluronan complexes; settings: for CD44 immunoreactivity, 1.5 ug/w HMW-HA: immX3AVD + 1.5 ug HMW-HA set to 100 AU; for CD44 immunoreactivity, CONTROL: no hyaluronan, 100 ng/well CD44
T1 construct: purchased Abcam, Waltham, MA
T1 sequence (P16070 21-742, species assumed): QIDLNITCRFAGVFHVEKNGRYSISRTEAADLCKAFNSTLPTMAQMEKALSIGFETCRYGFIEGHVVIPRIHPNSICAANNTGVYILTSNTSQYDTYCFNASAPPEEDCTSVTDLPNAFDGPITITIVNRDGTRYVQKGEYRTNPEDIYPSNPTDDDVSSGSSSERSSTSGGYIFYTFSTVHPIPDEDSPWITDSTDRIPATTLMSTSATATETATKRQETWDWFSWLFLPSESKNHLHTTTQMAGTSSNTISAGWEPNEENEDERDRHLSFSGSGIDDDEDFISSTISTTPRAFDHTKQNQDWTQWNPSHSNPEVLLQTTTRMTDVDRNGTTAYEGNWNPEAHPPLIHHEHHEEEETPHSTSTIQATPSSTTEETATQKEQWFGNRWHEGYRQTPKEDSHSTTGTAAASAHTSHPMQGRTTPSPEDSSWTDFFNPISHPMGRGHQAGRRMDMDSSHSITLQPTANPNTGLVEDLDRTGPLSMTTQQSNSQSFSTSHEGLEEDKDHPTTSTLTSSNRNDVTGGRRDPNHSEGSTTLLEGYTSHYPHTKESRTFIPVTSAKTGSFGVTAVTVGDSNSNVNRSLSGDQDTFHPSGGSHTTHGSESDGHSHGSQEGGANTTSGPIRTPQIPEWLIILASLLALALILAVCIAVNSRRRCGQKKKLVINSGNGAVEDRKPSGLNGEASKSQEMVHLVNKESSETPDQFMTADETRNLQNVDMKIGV
Procedure: as §1
A third binding experiment was done as described above using immX3AVD peptide with or without 10 ug/well holotransferrin (holoTf) plus either 10 ug/well LMW-HA or either 1.5 ug or 10 ug HMW-HA/well in the binding step, followed by a buffer wash step. 100 ng/well pure recombinant CD44 protein (Abcam, Waltham, MA) was then added to the indicated wells, incubated for 60 minutes at room temperature and the plate was washed with buffer. Anti-CD44 monoclonal antibody (Abcam, Waltham, MA) was added towells at 1:200, incubated for 60 minutes at room temperature and the plate was then washed and developed by secondary antibody and TMB detection as recommended by the manufacturer. CD44 immunoreactivity was expressed in arbitrary immunoreactivity units (AU), with **p<0.05 versus immx3AVD+1.5 ug HMW-HA control, which was set to=100 AU.

[3] = test system: C2C12 myoblastic cell line; assay: C2C12 myoblast differentiation, creatine kinase; assay type: cell-based; settings: 0.66 uM peptide, 96 hours, relative to immX3AVD = 100
Procedure: Differentiation assays employed the C2C12 myoblastic cell line (ATCC, Manassas, VA) seeded at 2×10e5 cells per well in 96-well plates and cultured at 37 degrees C. in DMEM growth medium plus 10% fetal bovine serum and 1% penicillin/streptomycin. For differentiation, 10% fetal bovine serum was replaced with 2% horse serum. 0.66 uM peptide was then added, and incubation continued for an additional 96 hours. Plates with adherent cells were washed with PBS, lysed with Lytic-M buffer (Sigma Chemical Company, St. Louis, MO) and the lysates were assayed for creatine kinase using a kit purchased from Bioassay Systems (Cat. #ECPK-100, Hayward, CA). Effects were visually confirmed with microscopy tracking myotube formation. Results were expressed as units per milliliter relative to the control immX3AVD peptide, and p values were also calculated and shown relative to control immX3AVD peptide (** p<0.05 versus immX3AVD control; avg±SD).

[4] = test system: Primary human T-cells pre-selected for recognizing GAD65 peptide antigen; assay: GAD65-specific primary T-cell differentiation on peptide-treated THP1-Dual cells; assay type: cell-based; settings: peptide 0.66 uM, GAD65 1 ug/ml
Procedure: Mammalian cell differentiation assays employed the THP1-Dual monocyte reporter cell line (Invivogen Inc, San Diego, CA) seeded at 2×10e5 cells per well in 96-well plates and cultured at 37 degrees C. in RPMI-1640 growth medium plus 10% fetal bovine serum and 1% penicillin/streptomycin. Cells were subsequently treated for 24 hours with 100 ng/ml Phorbol 12-myristate 13-acetate (PMA protocol; Cayman Chemical Company, Ann Arbor, MI). Peptide (0.33 uM or 0.66 uM, as indicated) was then added, and incubation continued for an additional 24 hours. Culture supernatants were assayed for CCL22. Plates with adherent cells were washed with PBS and assayed for immunoreactivity of surface markers such as CD169, Clec9a or Clec12a using fuorescent tag- or biotin-labeled anti-human antibodies purchased from Miltenyi Biotec (Auburn, CA) and the secondary detection reagent recommended by the manufacturer.
Another non-myeloid lineage was also tested. Primary human T-cells pre-selected for recognizing GAD65 peptide antigen, and the peptide antigen itself were purchased from Cellero LLC (Memphis, TN). THP1-Dual cells were treated with both GAD65 peptide antigen (1 ug/ml) and immodulin peptide (0.66 uM) using the protocol described in Example 2. After completion of the myeloid cell differentiation step (24 hours), supernatants were collected and 100,000 primary T-cells were added to each well in RPMI-1640 medium (100 uL per well). Plates were incubated for an additional 96 hours and cell extracts were prepared using CellLytic-M reagent (Sigma Chemical Co., St Louis, MO). Supernatants were assayed for CCL22, IL-10 and TGFbeta, and cell extracts assayed for FoxP3, all by ELISA using reagents from R&D Systems, Minneapolis, MN. The results are shown in the table below (**p<0.05 vs immX3AVD, set to=100): […]

In the case of `CC(C)[C@H](NC(=O)[C@H](C)NC(=O)[C@H](Cc1c[nH]c2ccccc12)NC(=O)[C@H](CS)NC(=O)[C@H](Cc1ccccc1)NC(=O)CNC(=O)[C@H](CCCNC(=N)N)NC(=O)[C@H](CCCCN)NC(=O)[C@H](CCCNC(=N)N)NC(=O)CNC(=O)[C@H](CCCCN)NC(=O)[C@H](CO)NC(=O)[C@@H]1CCCN1C(=O)[C@H](CCCNC(=N)N)NC(=O)[C@H](CS)NC(=O)[C@H](CCC(N)=O)NC(=O)[C@H](CCCCN)NC(=O)[C@H](CCCCN)NC(=O)[C@H](CCCCN)NC(=O)[C@H](Cc1ccc(O)cc1)NC(=O)[C@H](Cc1ccccc1)NC(=O)CNC(=O)[C@H](CCCCN)NC(=O)[C@@H](N)CCCCN)C(=O)N[C@@H](CC(=O)O)C(=O)O` [immX3AVD] (H-KKGFYKKKQCRPSKGRKRGFCWAVD-OH), the “Heparin binding (fluorescence counts)” value [1] is reported as 100.0 ± 4.7, the “FITC-HMW-HA binding, CONTROL” value ([2]; pH 5.2) is reported as 140.0 ± 16.7** and the “FITC-HMW-HA binding, +cold HMW-HA” value ([2]; pH 5.2) is reported as 12.5 ± 7.1**. For the same compound, the “FITC-HMW-HA binding, +cold LMW-HA” value ([2]; pH 5.2) was 100.6 ± 15.9, the “FITC-HMW-HA binding, +cold PIP2” value ([2]; pH 5.2) was 92.2 ± 29.4 and the “FITC-HMW-HA binding, +cold HMW-HA” value ([2]; pH 7.4) was 18.5 ± 3.7**. The “FITC-HMW-HA binding, +cold LMW-HA” value ([2]; pH 7.4) was 92.6 ± 11.8**, the “FITC-HMW-HA binding, +cold PIP2” value ([2]; pH 7.4) was 10.4 ± 8.2** and the “FITC-HMW-HA binding, CONTROL” value ([2]; pH 7.4, peptide binding control = 100) was 100.0 ± 8.3. The “CD44 immunoreactivity, 10 ug/w HMW-HA” value (recombinant CD44 protein; pH 5.2) was 105.1 ± 11.4 AU, the “CD44 immunoreactivity, 10 ug/w LMW-HA” value (recombinant CD44 protein; pH 5.2) was 102.6 ± 17.9 AU and the “CD44 immunoreactivity, 1.5 ug/w HMW-HA” value (recombinant CD44 protein; pH 5.2) was 100.0 ± 4.6 AU. The “CD44 immunoreactivity, CONTROL” value (recombinant CD44 protein; pH 5.2) was 13.2 ± 22.0** AU, the “CD44 immunoreactivity, 10 ug/w HMW-HA” value (recombinant CD44 protein; pH 7.4) was 101.1 ± 4.9 AU and the “CD44 immunoreactivity, 10 ug/w LMW-HA” value (recombinant CD44 protein; pH 7.4) was 103.0 ± 19.4 AU. For the same compound, the “CD44 immunoreactivity, 1.5 ug/w HMW-HA” value (recombinant CD44 protein; pH 7.4) was 100.0 ± 15.5 AU, the “CD44 immunoreactivity, CONTROL” value (recombinant CD44 protein; pH 7.4) was 19.6 ± 13.0** AU and the “Creatine Kinase Act.” value ([3]; helper D-raffinose (1 mM)) was 140.3 ± 8.3** units per milliliter. The “Creatine Kinase Act.” value ([3]; helper GW 3965 (2 uM)) was 67.4 ± 5.2** units per milliliter, the “Creatine Kinase Act.” value ([3]; helper GW 501516 (2 uM)) was 174.2 ± 5.0** units per milliliter and the “Creatine Kinase Act.” value ([3]; helper L-ornithine (1 mM)) was 161.5 ± 6.5** units per milliliter. The “Creatine Kinase Act.” value ([3]; helper Tf (holotransferrin 2 ug/ml)) was 120.6 ± 2.5** units per milliliter, the “Creatine Kinase Act.” value ([3]; helper Tf + HMW-HA (2 ug/ml)) was 33.2 ± 3.2 # units per milliliter and the “Creatine Kinase Act.” value ([3]; helper Tf + LMW-HA (2 ug/ml)) was 136.7 ± 13.3 units per milliliter. For the same compound, the “Creatine Kinase Act.” value ([3]; helper ciprofibrate (2 uM)) was 109.4 ± 3.2** units per milliliter, the “Creatine Kinase Act.” value ([3]; helper none) was 100.0 ± 2.2 units per milliliter and the “FoxP3 (AU)” value ([4]; cell extracts, immX3AVD = 100) was 100.0 ± 20.5 AU. For the same compound, the “CCL22” value ([4]; supernatant) was 88.8 ± 13.6 pg/mL, the “IL-10” value ([4]; supernatant) was 1331 ± 94.3 pg/mL and the “TGFb” value ([4]; supernatant) was 131.4 ± 41.4 pg/mL.
